Reference: US20240166635A1, “AMINOHETEROARYL KINASE INHIBITORS” (Anrui Biomedical Technology (Guangzhou) Co.,Ltd., priority 2020, published 2024)

How the values were obtained:
Format in all cases: biochemical
CDK7/CyclinH/MAT1 = CDK7/CyclinH/MAT1 (Homo sapiens (Human), UniProt P50613); experiment: CDK7/CyclinH/MAT1 kinase inhibitory activity (Caliper mobility shift)
CDK9/CyclinT1 = CDK9/CyclinT1 (Homo sapiens (Human), UniProt P50750); experiment: CDK9/CyclinT1 kinase inhibitory activity (Caliper mobility shift); details: read-out: CDK9/Cyclin T1 IC50
CDK2/CyclinE1 = CDK2/CyclinE1 (Homo sapiens (Human), UniProt P24941); experiment: CDK2/CyclinE1 kinase inhibitory activity (Caliper mobility shift); details: read-out: CDK2/Cyclin El IC50
CDK4/Cyclin D1 = CDK4/Cyclin D1 (Homo sapiens (Human), UniProt P11802); experiment: CDK4/CyclinD1 kinase inhibitory activity (Caliper mobility shift)
CDK6/CyclinD1 = CDK6/CyclinD1 (Homo sapiens (Human), UniProt Q00534); experiment: CDK6/CyclinD1 kinase inhibitory activity (Caliper mobility shift); details: read-out: CDK6/Cyclin D1 IC50
CDK1/CyclinB = CDK1/CyclinB (Homo sapiens (Human), UniProt P06493); experiment: CDK1/CyclinB kinase inhibitory activity (Caliper mobility shift); details: read-out: CDK1/Cyclin B1 IC50
Sequence of CDK1/CyclinB (P06493 whole entry): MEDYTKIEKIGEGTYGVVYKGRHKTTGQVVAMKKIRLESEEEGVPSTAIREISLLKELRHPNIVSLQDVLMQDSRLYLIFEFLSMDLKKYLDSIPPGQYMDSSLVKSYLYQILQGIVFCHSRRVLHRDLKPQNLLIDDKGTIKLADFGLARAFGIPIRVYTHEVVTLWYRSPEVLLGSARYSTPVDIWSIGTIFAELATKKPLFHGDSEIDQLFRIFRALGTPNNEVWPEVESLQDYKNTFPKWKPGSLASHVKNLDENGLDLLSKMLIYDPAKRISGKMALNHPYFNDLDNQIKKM
Sequence of CDK1/CyclinB (P14635 whole entry partner): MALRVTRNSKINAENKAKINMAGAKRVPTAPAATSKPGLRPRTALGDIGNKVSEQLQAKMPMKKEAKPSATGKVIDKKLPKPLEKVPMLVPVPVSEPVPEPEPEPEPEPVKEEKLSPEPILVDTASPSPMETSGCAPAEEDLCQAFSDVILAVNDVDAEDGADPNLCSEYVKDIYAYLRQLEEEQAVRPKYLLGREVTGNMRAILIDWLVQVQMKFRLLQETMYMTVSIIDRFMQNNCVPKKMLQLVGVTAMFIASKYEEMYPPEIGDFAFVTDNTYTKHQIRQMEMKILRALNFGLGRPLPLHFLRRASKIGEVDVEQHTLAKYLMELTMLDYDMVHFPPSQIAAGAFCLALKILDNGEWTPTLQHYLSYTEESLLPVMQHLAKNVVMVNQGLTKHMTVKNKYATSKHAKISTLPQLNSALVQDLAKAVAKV

Sequence of CDK6/CyclinD1 (Q00534 whole entry): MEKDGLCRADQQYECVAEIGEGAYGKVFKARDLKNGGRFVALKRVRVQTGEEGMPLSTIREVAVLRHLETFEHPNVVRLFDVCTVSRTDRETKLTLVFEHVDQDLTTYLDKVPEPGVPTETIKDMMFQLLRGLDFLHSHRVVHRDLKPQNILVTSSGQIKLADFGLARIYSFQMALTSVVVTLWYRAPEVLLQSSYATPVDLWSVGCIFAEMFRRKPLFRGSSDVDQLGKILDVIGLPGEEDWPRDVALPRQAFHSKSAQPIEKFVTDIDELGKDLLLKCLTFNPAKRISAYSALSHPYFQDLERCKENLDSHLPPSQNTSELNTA
Sequence of CDK6/CyclinD1 (P24385 whole entry partner): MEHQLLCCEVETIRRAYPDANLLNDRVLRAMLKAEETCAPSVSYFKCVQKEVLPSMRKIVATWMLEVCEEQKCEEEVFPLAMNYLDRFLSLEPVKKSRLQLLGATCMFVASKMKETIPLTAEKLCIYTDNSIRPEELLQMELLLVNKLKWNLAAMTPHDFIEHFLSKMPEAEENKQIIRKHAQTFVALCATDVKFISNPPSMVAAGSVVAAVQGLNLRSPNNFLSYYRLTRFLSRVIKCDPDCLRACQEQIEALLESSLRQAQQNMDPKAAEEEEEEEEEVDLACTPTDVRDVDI
Sequence of CDK4/Cyclin D1 (P11802 whole entry): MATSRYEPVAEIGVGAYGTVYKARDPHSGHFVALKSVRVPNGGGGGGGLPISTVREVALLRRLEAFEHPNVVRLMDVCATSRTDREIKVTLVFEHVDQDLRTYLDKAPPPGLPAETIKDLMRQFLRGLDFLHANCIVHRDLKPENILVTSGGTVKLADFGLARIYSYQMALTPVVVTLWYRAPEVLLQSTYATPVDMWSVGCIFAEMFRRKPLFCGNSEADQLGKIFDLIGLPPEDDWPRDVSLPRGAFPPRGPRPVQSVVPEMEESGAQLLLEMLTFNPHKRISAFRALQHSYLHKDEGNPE
Sequence of CDK4/Cyclin D1 (P24385 whole entry partner): as the sequence (P24385 whole entry partner) above
Sequence of CDK7/CyclinH/MAT1 (P50613 whole entry): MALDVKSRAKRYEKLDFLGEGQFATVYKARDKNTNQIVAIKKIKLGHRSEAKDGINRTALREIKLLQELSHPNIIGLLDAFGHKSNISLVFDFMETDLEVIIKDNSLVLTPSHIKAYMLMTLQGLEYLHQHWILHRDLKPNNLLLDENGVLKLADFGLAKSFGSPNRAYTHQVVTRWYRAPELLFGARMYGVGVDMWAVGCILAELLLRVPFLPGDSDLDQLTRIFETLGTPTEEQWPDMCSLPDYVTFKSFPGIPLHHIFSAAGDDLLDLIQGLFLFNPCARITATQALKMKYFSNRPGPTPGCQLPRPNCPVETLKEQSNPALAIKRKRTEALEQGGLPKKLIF
Sequence of CDK7/CyclinH/MAT1 (P51946 whole entry partner): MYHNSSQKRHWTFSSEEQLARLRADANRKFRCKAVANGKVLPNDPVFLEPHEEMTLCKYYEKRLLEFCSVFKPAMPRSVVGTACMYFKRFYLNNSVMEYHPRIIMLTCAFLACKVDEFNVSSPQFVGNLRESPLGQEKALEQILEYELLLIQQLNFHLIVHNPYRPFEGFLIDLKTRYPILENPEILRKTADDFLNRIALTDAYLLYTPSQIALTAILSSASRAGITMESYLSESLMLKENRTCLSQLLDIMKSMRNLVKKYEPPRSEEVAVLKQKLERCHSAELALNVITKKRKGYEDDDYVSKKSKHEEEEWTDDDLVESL
Sequence of CDK7/CyclinH/MAT1 (P51948 whole entry partner): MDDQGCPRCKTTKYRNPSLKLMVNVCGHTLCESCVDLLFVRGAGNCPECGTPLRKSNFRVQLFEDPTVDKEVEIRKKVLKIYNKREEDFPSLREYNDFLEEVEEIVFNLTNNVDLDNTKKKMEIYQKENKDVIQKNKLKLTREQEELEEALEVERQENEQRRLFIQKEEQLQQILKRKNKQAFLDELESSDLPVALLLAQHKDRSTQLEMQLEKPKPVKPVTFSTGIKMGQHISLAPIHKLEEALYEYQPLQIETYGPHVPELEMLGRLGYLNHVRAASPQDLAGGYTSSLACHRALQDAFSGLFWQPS
Sequence of CDK9/CyclinT1 (P50750 whole entry): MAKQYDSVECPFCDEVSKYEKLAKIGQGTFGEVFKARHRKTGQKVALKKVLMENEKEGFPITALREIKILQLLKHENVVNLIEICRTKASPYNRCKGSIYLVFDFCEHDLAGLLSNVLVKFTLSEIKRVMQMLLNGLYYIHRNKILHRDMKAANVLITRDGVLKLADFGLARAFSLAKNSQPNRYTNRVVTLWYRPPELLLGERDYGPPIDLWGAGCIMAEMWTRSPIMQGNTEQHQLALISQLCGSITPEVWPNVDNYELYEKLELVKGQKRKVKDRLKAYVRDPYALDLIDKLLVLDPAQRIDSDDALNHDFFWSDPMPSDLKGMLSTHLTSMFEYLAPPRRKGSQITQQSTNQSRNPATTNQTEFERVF
Sequence of CDK9/CyclinT1 (O60563 whole entry partner): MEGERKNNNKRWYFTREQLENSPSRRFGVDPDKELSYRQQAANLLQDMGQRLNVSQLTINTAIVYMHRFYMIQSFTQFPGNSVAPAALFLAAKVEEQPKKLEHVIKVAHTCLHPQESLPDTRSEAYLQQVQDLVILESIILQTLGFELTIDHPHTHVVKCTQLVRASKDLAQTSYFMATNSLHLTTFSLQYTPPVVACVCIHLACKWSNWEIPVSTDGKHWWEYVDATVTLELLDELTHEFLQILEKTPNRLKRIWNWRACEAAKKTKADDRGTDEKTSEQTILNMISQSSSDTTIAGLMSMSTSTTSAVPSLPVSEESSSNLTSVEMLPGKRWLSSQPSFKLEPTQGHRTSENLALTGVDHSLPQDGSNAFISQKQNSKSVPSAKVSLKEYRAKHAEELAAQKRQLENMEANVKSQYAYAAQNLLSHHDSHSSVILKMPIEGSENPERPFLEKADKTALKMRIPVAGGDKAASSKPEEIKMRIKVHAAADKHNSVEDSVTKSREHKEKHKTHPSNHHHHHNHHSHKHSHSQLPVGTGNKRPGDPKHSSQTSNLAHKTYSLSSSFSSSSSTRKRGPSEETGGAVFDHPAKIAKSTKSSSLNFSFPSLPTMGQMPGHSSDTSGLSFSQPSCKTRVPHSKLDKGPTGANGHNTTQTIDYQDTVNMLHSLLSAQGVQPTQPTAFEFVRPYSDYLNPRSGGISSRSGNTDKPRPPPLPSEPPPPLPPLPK

| Compound | IC50 (CDK7/CyclinH/MAT1) | IC50 (CDK9/CyclinT1) | IC50 (CDK2/CyclinE1) | IC50 (CDK4/Cyclin D1) | IC50 (CDK6/CyclinD1) | IC50 (CDK1/CyclinB) |
| --- | --- | --- | --- | --- | --- | --- |
| CC1(O)CCCC1Oc1nc(NC2CCN(S(=O)(=O)CC(F)(F)F)CC2)ncc1C#N (single isomer, unassigned) [Example 43a] | 100 to 1000 nM | 100 to 1000 nM | < 10 nM | < 10 nM | 10 to 100 nM | 10 to 100 nM |
| CC1(COc2nc(NC3CCN(S(C)(=O)=O)CC3)ncc2C#N)CCC1 [Example 53] | 100 to 1000 nM | 100 to 1000 nM | < 10 nM | < 10 nM | 10 to 100 nM | 10 to 100 nM |
| CC1(O)CCCC1Oc1nc(NC2CCN(S(=O)(=O)CC3CC3)CC2)ncc1C#N (single isomer, unassigned) [Example 38a] | 10 to 100 nM | 100 to 1000 nM | < 10 nM | < 10 nM | < 10 nM | 10 to 100 nM |
| CNS(=O)(=O)c1ccc(Nc2ncc(Cl)c(OC3CCCC3O)n2)cc1 (single isomer, unassigned) [Example 137a] | 100 to 1000 nM | 100 to 1000 nM | < 10 nM | 100 to 1000 nM | 10 to 100 nM | 10 to 100 nM |
| Cn1cc(S(=O)(=O)N2CCC(Nc3ncc(C#N)c(OCC4(C)CCCC4)n3)CC2)cn1 [Example 62] | 100 to 1000 nM | 100 to 1000 nM | < 10 nM | < 10 nM | 10 to 100 nM | < 10 nM |
| CC1(COc2nc(NC3CCN(S(C)(=O)=O)CC3)ncc2C#N)CCCC1 [Example 54] | 100 to 1000 nM | 100 to 1000 nM | < 10 nM | < 10 nM | < 10 nM | 10 to 100 nM |
| [2H]C([2H])([2H])NS(=O)(=O)c1ccc(Nc2ncc(Br)c(OC3CCCC3O)n2)cc1 (single isomer, unassigned) [Example 143a] | 100 to 1000 nM | 100 to 1000 nM | < 10 nM | 100 to 1000 nM | 10 to 100 nM | 10 to 100 nM |
| [2H]C([2H])([2H])NS(=O)(=O)c1ccc(Nc2ncc(C(F)(F)F)c(OC3COCCC3O)n2)cc1 (single isomer, unassigned) [Example 117a] | 100 to 1000 nM | 100 to 1000 nM | < 10 nM | 100 to 1000 nM | 100 to 1000 nM | 10 to 100 nM |
| CC1(O)CCCCC1Oc1nc(Nc2ccc(S(N)(=O)=O)cc2)ncc1C#N (single isomer, unassigned) [Example 24a] | < 10 nM | < 10 nM | < 10 nM | < 10 nM | < 10 nM | < 10 nM |
| CNS(=O)(=O)c1ccc(Nc2ncc(C#N)c(N3CCCCC3)n2)cc1 [Example 91] | ≥ 1000 nM | 100 to 1000 nM | < 10 nM | 10 to 100 nM | 100 to 1000 nM | 10 to 100 nM |
| N#Cc1cnc(Nc2ccc(S(N)(=O)=O)cc2)nc1-c1cccc(C2CC2)c1 [Example 96] | ≥ 1000 nM | 100 to 1000 nM | 10 to 100 nM | 10 to 100 nM | ≥ 1000 nM | 100 to 1000 nM |
| [2H]C([2H])([2H])NS(=O)(=O)c1ccc(Nc2ncc(C(=C)F)c(O[C@@H]3CCC[C@@H]3O)n2)cc1 (single isomer, unassigned) [Example 135a, cis-4-((5-(1-fluorovinyl)-4-((2-hydroxycyclopentyl)oxy)pyrimidin-2-yl)amino)-N-(methyl-d3)benzenesulfonamide] | 100 to 1000 nM | 100 to 1000 nM | < 10 nM | 100 to 1000 nM | 100 to 1000 nM | 10 to 100 nM |
| [2H]C([2H])([2H])NS(=O)(=O)c1ccc(Nc2ncc(CC)c(OC3CCCC3O)n2)cc1 (single isomer, unassigned) [Example 149a] | 100 to 1000 nM | 100 to 1000 nM | < 10 nM | 100 to 1000 nM | 100 to 1000 nM | 10 to 100 nM |
| CC1(O)CC(F)(F)CCC1Oc1nc(NC2CCN(S(C)(=O)=O)CC2)ncc1C#N (single isomer, unassigned) [Example 47a] | 10 to 100 nM | 100 to 1000 nM | < 10 nM | < 10 nM | < 10 nM | 10 to 100 nM |
| CC1(COc2nc(NC3CCN(S(N)(=O)=O)CC3)ncc2C#N)CCCC1 [Example 56] | 100 to 1000 nM | 100 to 1000 nM | < 10 nM | < 10 nM | 10 to 100 nM | < 10 nM |
| CNS(=O)(=O)N1CCC(Nc2ncc(C(F)(F)F)c(OC3CCCCCC3)n2)CC1 [Example 129] | ≥ 1000 nM | 10 to 100 nM | < 10 nM | < 10 nM | 100 to 1000 nM | 10 to 100 nM |

| Compound | IC50 (CDK7/CyclinH/MAT1) | IC50 (CDK9/CyclinT1) | IC50 (CDK2/CyclinE1) | IC50 (CDK4/Cyclin D1) | IC50 (CDK6/CyclinD1) | IC50 (CDK1/CyclinB) |
| --- | --- | --- | --- | --- | --- | --- |
| CC1(O)CCCC1Oc1nc(Nc2ccc(S(N)(=O)=O)cc2)ncc1C#N (single isomer, unassigned) [Example 23a] | 100 to 1000 nM | 10 to 100 nM | < 10 nM | 10 to 100 nM | 10 to 100 nM | < 10 nM |
| [2H]C([2H])([2H])NS(=O)(=O)c1ccc(Nc2ncc(C)c(OC3CCCC3O)n2)cc1 (single isomer, unassigned) [Example 148a] | ≥ 1000 nM | 100 to 1000 nM | < 10 nM | ≥ 1000 nM | 100 to 1000 nM | 100 to 1000 nM |
| N#Cc1cnc(Nc2ccc(S(N)(=O)=O)cc2)nc1OC1CCCC1O (single isomer, unassigned) [Example 20b] | ≥ 1000 nM | 100 to 1000 nM | 10 to 100 nM | 100 to 1000 nM | 100 to 1000 nM | 100 to 1000 nM |
| CNS(=O)(=O)c1ccc(Nc2ncc(Br)c(OC3CCCC3O)n2)cc1 (single isomer, unassigned) [Example 142a] | 100 to 1000 nM | 100 to 1000 nM | < 10 nM | 100 to 1000 nM | 10 to 100 nM | 10 to 100 nM |
| N#Cc1cnc(Nc2ccc(S(=O)(=O)NC3CCC3)cc2)nc1OC1CCC[C@H]1O (mixture of isomers) [Example 25] | ≥ 1000 nM | 100 to 1000 nM | < 10 nM | 100 to 1000 nM | 10 to 100 nM | 10 to 100 nM |
| NS(=O)(=O)c1ccc(Nc2ncc(Br)c(OC3CCCC3O)n2)cc1 (single isomer, unassigned) [Example 141a] | 100 to 1000 nM | 10 to 100 nM | < 10 nM | 10 to 100 nM | 10 to 100 nM | 10 to 100 nM |
| CCc1cnc(Nc2ccc(S(N)(=O)=O)cc2)nc1O[C@@H]1CCC[C@@H]1O (single isomer, unassigned) [Example 133a, cis-4-((5-ethyl-4-((2-hydroxycyclopentyl)oxy)pyrimidin-2-yl)amino)benzenesulfonamide] | 100 to 1000 nM | 10 to 100 nM | < 10 nM | 100 to 1000 nM | 10 to 100 nM | 10 to 100 nM |
| Cc1cnc(Nc2ccc(S(=O)(=O)NC(C)C)cc2)nc1OC1CCCC1O (single isomer, unassigned) [Example 147a] | 100 to 1000 nM | 100 to 1000 nM | < 10 nM | ≥ 1000 nM | 100 to 1000 nM | 10 to 100 nM |
| N#Cc1cnc(Nc2ccc(S(N)(=O)=O)cc2)nc1N1CCCCC1 [Example 65, 4-((5-cyano-4-(piperidin-1-yl)pyrimidin-2-yl)amino) benzenesulfonamide] | ≥ 1000 nM | 100 to 1000 nM | < 10 nM | 10 to 100 nM | 100 to 1000 nM | 10 to 100 nM |
| CC1(O)CC(F)(F)CC1Oc1nc(NC2CCN(S(=O)(=O)CC3CC3)CC2)ncc1C#N (single isomer, unassigned) [Example 44b] | 10 to 100 nM | 100 to 1000 nM | < 10 nM | 10 to 100 nM | < 10 nM | 10 to 100 nM |
| CC(C)NS(=O)(=O)c1ccc(Nc2ncc(C#N)c(OC3CCC[C@H]3O)n2)cc1 (mixture of isomers) [Example 27] | ≥ 1000 nM | 100 to 1000 nM | < 10 nM | 100 to 1000 nM | 100 to 1000 nM | 10 to 100 nM |
| CNS(=O)(=O)c1ccc(Nc2ncc(C(F)(F)F)c(OC3CCCC3O)n2)cc1 (single isomer, unassigned) [Example 105a] | 100 to 1000 nM | 100 to 1000 nM | < 10 nM | 100 to 1000 nM | 100 to 1000 nM | 10 to 100 nM |
| NS(=O)(=O)c1ccc(Nc2ncc(C(F)(F)F)c(OC3CCCCC3O)n2)cc1 (single isomer, unassigned) [Example 111b] | 100 to 1000 nM | 10 to 100 nM | < 10 nM | 10 to 100 nM | 10 to 100 nM | < 10 nM |
| C[C@]1(O)CCC[C@H]1Oc1nc(NC2CCN(S(C)(=O)=O)CC2)ncc1C#N (relative stereo) [Example 3b, cis-4-((2-hydroxy-2-methylcyclopentyl)oxy)-2-((1-(methylsulfonyl)piperidin-4-yl)amino)pyrimidine-5-carbonitrile] | 10 to 100 nM | 100 to 1000 nM | < 10 nM | < 10 nM | < 10 nM | 10 to 100 nM |
| [2H]C([2H])([2H])NS(=O)(=O)c1ccc(Nc2ncc(CC)c(OC3COCCC3(C)O)n2)cc1 (single isomer, unassigned) [Example 153a] | 10 to 100 nM | 10 to 100 nM | < 10 nM | 100 to 1000 nM | 10 to 100 nM | 10 to 100 nM |
| N#Cc1cnc(Nc2ccc(S(N)(=O)=O)cc2)nc1N1CCC(O)CC1 [Example 82] | ≥ 1000 nM | 100 to 1000 nM | 10 to 100 nM | 100 to 1000 nM | 100 to 1000 nM | 100 to 1000 nM |
